Source: patent US7569588B2, “Biphenyl compounds useful as muscarinic receptor antagonists” (Theravance, Inc., priority 2004, dated 2009)

Experiments:
[1] = test system: MCh-induced depressor responses; test: Methacholine-induced depressor responses in conscious guinea pigs; type: in vivo; conditions: guinea pig, inhalation
Source text: Healthy, adult, male Sprague-Dawley guinea pigs (Harlan, Indianapolis, Ind.), weighing between 200 and 300 g were used in these studies. Under isoflurane anesthesia (to effect), animals were instrumented with common carotid artery and jugular vein catheters (PE-50 tubing). The catheters were exteriorized utilizing a subcutaneous tunnel to the subscapular area. All surgical incisions were sutured with 4-0 Ethicon Silk and the catheters locked with heparin (1000 units/mL). Each animal was administered saline (3 mL, SC) at the end of surgery as well as buprenorphine (0.05 mg/kg, IM). Animals were allowed to recover on a heating pad before being returned to their holding rooms.
Approximately 18 to 20 hours following surgery, the animals were weighed and the carotid artery catheter on each animal was connected to a transducer for recording arterial pressure. Arterial pressure and heart rate was recorded using a Biopac MP-100 Acquisition System. Animals were allowed to acclimate and stabilize for a period of 20 minutes.
Each animal was challenged with MCh (0.3 mg/kg, IV) administered through the jugular venous line and the cardiovascular response was monitored for 10 minutes. […] At 1.5 and 24 hours post-dosing, the animals were re-challenged with MCh (0.3 mg/kg, IV) and the hemodynamic response was determined. […]

[2] = target: T1, hM2 receptor (CHO-K1 cell membranes) (Homo sapiens, UniProt P08172); test: Blockade of agonist-mediated (oxotremorine-stimulated) [35S]GTPγS binding; type: biochemical; conditions: CHO-K1 cells expressing the hM2 receptor
T1 construct: expressed in transfected cells; host or cells: membranes of CHO (CHO-K1) cells stably expressing the cloned human receptor
T1 sequence (P08172 1-466): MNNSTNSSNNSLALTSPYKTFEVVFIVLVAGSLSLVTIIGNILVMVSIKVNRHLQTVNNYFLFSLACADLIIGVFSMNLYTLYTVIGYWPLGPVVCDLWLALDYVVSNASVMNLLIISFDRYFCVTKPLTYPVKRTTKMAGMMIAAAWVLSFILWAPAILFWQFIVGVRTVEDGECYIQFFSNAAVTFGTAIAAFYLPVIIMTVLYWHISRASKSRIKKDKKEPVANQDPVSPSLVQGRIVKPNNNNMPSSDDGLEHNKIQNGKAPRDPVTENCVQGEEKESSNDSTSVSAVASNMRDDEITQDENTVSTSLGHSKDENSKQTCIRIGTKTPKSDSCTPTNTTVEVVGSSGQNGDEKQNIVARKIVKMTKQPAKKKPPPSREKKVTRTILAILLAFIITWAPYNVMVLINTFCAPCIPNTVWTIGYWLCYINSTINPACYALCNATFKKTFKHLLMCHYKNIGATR
Description: B. Blockade of Agonist-Mediated [^35S]GTPγS Binding
In a second functional assay, the functional potency of test compounds can be determined by measuring the ability of the compounds to block oxotremorine-stimulated [^35S]GTPγS binding in CHO—K1 cells expressing the hM2 receptor.
At the time of use, frozen membranes were thawed and then diluted in assay buffer with a final target tissue concentration of 5-10 μg protein per well. The membranes were briefly homogenized using a Polytron PT-2 100 tissue disrupter and then added to the assay plates.
The EC90 value (effective concentration for 90% maximal response) for stimulation of[^35S]GTPγS binding by the agonist oxotremorine was determined in each experiment.
To determine the ability of a test compound to inhibit oxotremorine-stimulated [^35S]GTPγS binding, the following was added to each well of 96 well plates: 25 μL of assay buffer with [^35S]GTPγS (0.4nM), 25 μL of oxotremorine(ECgo) and GDP (3 μM), 25 μL of diluted test compound and 25 μL CHO cell membranes expressing the hM2 receptor. […] Microscint-20 scintillation liquid (50 μL) was added to each well, and each plate was sealed and radioactivity counted on a topcounter (PerkinElmer). Data were analyzed by nonlinear regression analysis with the GraphPad Prism Software package (GraphPad Software, Inc., San Diego, Calif.) using the non-linear regression, one-site competition equation. […]

hM3 receptor (CHO cells) = target: T2, hM3 receptor (CHO cells) (Homo sapiens, UniProt P20309); test: Blockade of agonist-mediated calcium release via FLIPR assay; type: cell-based; conditions: CHO cells stably expressing the hM3 receptor
T2 construct: expressed in transfected cells
Source text: C. Blockade of Agonist-Mediated Calcium Release via FLIPR Assays
Muscarinic receptor subtypes (M1, M3 and M5 receptors), which couple to Gq proteins, activate the phospholipase C (PLC) pathway upon agonist binding to the receptor. As a result, activated PLC hydrolyzes phosphatyl inositol diphosphate (PIP2) to diacylglycerol (DAG) and phosphatidyl-1,4,5-triphosphate (IP3), which in turn generates calcium release from intracellular stores, i.e., endoplasmic and sarcoplasmic reticulum. […] This fluorescence event was measured in real time by the FLIPR, which detected the change in fluorescence from a monolayer of cells cloned with human M1 and M3, and chimpanzee M5 receptors. Antagonist potency was determined by the ability of antagonists to inhibit agonist-mediated increases in intracellular calcium. […]
To determine antagonist potency, the dose-dependent stimulation of intracellular Ca^2+release for oxotremorine was first determined so that antagonist potency can later be measured against oxotremorine stimulation at an EC90 concentration. […] Baseline was determined by measuring the change in fluorescence for 10 seconds prior to addition of agonist. Following agonist stimulation, the FLIPR continuously measured the change of fluorescence every 0.5 to 1 second for 1.5 minutes to capture the maximum fluorescence change. […]

[3] = target: T3, hM2 receptor (CHO-K1 cells) (Homo sapiens, UniProt P08172); test: Blockade of agonist-mediated (oxotremorine) inhibition of forskolin-mediated cAMP accumulation; type: cell-based; conditions: CHO-K1 cells expressing the hM2 receptor
T3 construct: expressed in transfected cells; host or cells: CHO-K1 cells
T3 sequence (P08172 1-466): T1 sequence (P08172 1-466)
Description: A. Blockade of Agonist-Mediated Inhibition of cAMP Accumulation
In this assay, the functional potency of a test compound was determined by measuring the ability of the test compound to block oxotremorine-inhibition of forskolin-mediated cAMP accumulation in CHO—K1 cells expressing the hM2 receptor.
cAMP assays were performed in a radioimmunoassay format using the Flashplate Adenylyl Cyclase Activation Assay System with ^1251-cAMP (NEN SMP004B, PerkinElmer Life Sciences Inc., Boston, Mass.), according to the manufacturer's instructions.
Cells were rinsed once with dPBS and lifted with Trypsin-EDTA solution (0.05% trypsin/0.53 mM EDTA) as described in the Cell Culture and Membrane Preparation section above. […] The cell pellet was then re-suspended in 10 mL dPBS, and the cells were counted with a Coulter Z1 Dual Particle Counter (Beckman Coulter, Fullerton, Calif.). […]
Reactions were incubated for 10 minutes at 37° C. and stopped by addition of 100 μL ice-cold detection buffer. Plates were sealed, incubated overnight at room temperature and counted the next morning on a PerkinElmer TopCount liquid scintillation counter (PerkinElmer Inc., Wellesley, Mass.). The amount of cAMP produced (pmol/well) was calculated based on the counts observed for the samples and cAMP standards, as described in the manufacturer's user manual. […]

[4] = test system: ACh-induced bronchoconstriction; test: Duration of bronchoprotection in guinea pig model of acetylcholine-induced bronchoconstriction; type: in vivo; conditions: inhalation, 1.5 hours post-dose
Description: Groups of six male guinea pigs (Duncan-Hartley (HsdPoc:DH) Harlan, Madison, Wisc.) weighing between 250 and 350 g were individually identified by cage cards. Throughout the study animals were allowed access to food and water ad libitum.
Test compounds were administered via inhalation over 10 minutes in a whole-body exposure dosing chamber (R&S Molds, San Carlos, Calif.). The dosing chambers were arranged so that an aerosol was simultaneously delivered to 6 individual chambers from a central manifold. Guinea pigs were exposed to an aerosol of a test compound or vehicle (WFI). […] This was measured gravimetrically by comparing pre-and post-nebulization weights of the filled nebulizer.
The bronchoprotective effects of test compounds administered via inhalation were evaluated using whole body plethysmography at 1.5, 24, 48 and 72 hours post-dose.
Forty-five minutes prior to the start of the pulmonary evaluation, each guinea pig was anesthetized with an intramuscular injection of ketamine (43.75 mg/kg), xylazine (3.50 mg/kg) and acepromazine (1.05 mg/kg). […] The depth of anesthesia was monitored and adjusted if the animal responded to pinching of its paw or if the respiration rate was greater than 100 breaths/minute. […]
Starting this program initiated the experimental protocol and data collection. […] By integrating this signal over time, a measurement offlow was calculated for each breath. […]

[5] = test system: pilocarpine-evoked salivation; test: Inhalation guinea pig salivation assay (pilocarpine-evoked salivation); type: in vivo
Description: Guinea pigs (Charles River, Wilmington, Mass.) weighing 200-350 g were acclimated to the in-house guinea pig colony for at least 3 days following arrival. Test compound or vehicle were dosed via inhalation (IH) over a 10 minute time period in a pie shaped dosing chamber (R&S Molds, San Carlos, Calif.). Test solutions were dissolved in sterile water and delivered using a nebulizer filled with 5.0 mL of dosing solution. Guinea pigs were restrained in the inhalation chamber for 30 minutes. During this time, guinea pigs were restricted to an area of approximately 110 sq. cm. This space was adequate for the animals to turn freely, reposition themselves, and allow for grooming. […] Upon completion of nebulization, guinea pigs were evaluated at 1.5, 6, 12, 24, 48, or 72 hrs after treatment.
Guinea pigs were anesthetized one hour before testing with an intramuscular (IM) injection of a mixture of ketamine 43.75 mg/kg, xylazine 3.5 mg/kg, and acepromazine 1.05 mg/kg at an 0.88 mL/kg volume. […] Saliva was collected for 10 minutes, at which point the gauze pad was weighed and the difference in weight recorded to determine the amount of accumulated saliva (in mg). The mean amount of saliva collected for animals receiving the vehicle and each dose of test compound was calculated. […] Results were calculated using result means (n=3 or greater). […]

T2 sequence (P20309 whole entry): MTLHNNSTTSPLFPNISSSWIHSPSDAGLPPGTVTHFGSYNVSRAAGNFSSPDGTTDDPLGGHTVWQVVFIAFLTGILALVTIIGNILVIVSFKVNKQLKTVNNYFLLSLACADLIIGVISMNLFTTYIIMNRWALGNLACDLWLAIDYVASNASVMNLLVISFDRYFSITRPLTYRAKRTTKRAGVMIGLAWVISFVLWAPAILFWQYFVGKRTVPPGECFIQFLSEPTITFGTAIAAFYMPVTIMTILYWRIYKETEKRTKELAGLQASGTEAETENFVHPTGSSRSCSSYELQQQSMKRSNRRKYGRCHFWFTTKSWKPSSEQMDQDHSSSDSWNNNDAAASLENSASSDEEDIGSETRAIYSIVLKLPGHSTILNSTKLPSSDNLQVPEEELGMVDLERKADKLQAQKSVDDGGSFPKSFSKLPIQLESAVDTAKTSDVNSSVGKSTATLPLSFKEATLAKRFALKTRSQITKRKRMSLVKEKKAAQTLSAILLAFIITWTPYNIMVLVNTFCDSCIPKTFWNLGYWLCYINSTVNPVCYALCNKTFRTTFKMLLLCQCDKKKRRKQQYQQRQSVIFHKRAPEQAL

O=C(CCN1CCC(OC(=O)Nc2ccccc2-c2ccccc2)CC1)NCCCCCNCCc1ccc(O)cc1 [Example 1, Biphenyl-2-ylcarbamic Acid 1-(2-{5-[2-(4-Hydroxyphenyl)ethylamino]pentylcarbamoyl}ethyl)piperidin-4-yl Ester]
apparent lung-selectivity index (ratio of anti-depressor ID50 to bronchoprotective ID50) [1]: greater than 5

O=C(CCN1CCC(OC(=O)Nc2ccccc2-c2ccccc2)CC1)NCCCCCNCc1ccc(O)cc1 [Example 2, Biphenyl-2-ylcarbamic Acid 1-{2-[5-(4-Hydroxybenzylamino)pentylcarbamoyl]ethyl}piperidin-4-yl Ester]
Ki [2]: < 10 nM | Ki (hM3 receptor (CHO cells)): < 10 nM

CN(CCCCCNC(=O)CCN1CCC(OC(=O)Nc2ccccc2-c2ccccc2)CC1)Cc1ccc(O)cc1 [Example 3, Biphenyl-2-ylcarbamic Acid 1-(2-{5-[(4-Hydroxybenzyl)methylamino]pentylcarbamoyl}ethyl)piperidin-4-yl Ester]
Ki [3]: < 10 nM | PD2(50) for ACh-induced bronchoconstriction [4]: less than 200 μg/mL

N[C@@H](Cc1ccc(O)cc1)C(=O)NCCCCCNC(=O)CCN1CCC(OC(=O)Nc2ccccc2-c2ccccc2)CC1 [Example 6, Biphenyl-2-ylcarbamic Acid 1-(2-{5-[(S)-2-Amino-3-(4-Hydroxyphenyl)propionylamino]pentylcarbamoyl}ethyl)piperidin-4-yl Ester]
apparent lung selectivity index (ratio of anti-sialagogue ID50 to bronchoprotective ID50) [5]: greater than 5
